Results taken from PMC5014630 (Molecular pharmaceutics, 2016).

Legend:
[1] = tested on: iPSC-derived BMECs; assay: Temperature dependence of permeability; type: in vitro ADME, human; conditions: normalized to 37°C condition; Student's t-test
[2] = tested on: iPSC-derived BMECs; assay: Permeability across iPSC-derived BMEC Transwell in vitro BBB model; conditions: for permeability (Pe) across iPSC-BMEC: Transwell, APC analogs 1 μM in PM20, 2 hours, mean±S.E., n≥3
[3] = Experimental octanol/water LogD; type: physicochemical; conditions: pH 7.4, octanol:buffer
[4] = tested on: MRPs; assay: Permeability with pan-MRP inhibitor MK571 in iPSC-derived BMEC; type: in vitro ADME, human; conditions: 10 μM MK571, 60 min pre-incubation; normalized to no inhibitor
[5] = tested on: iPSC-derived BMECs; assay: Directional; type: in vitro ADME, human; conditions: normalized to AB permeability; Student's t-test
[6] = biological target: T1, BCRP (Homo sapiens, UniProt Q9UNQ0); assay: Permeability with BCRP inhibitor Ko143 in iPSC-derived BMEC; type: in vitro ADME; conditions: 1 μM Ko143, 60 min pre-incubation; normalized to no inhibitor
T1 sequence (Q9UNQ0 1-655): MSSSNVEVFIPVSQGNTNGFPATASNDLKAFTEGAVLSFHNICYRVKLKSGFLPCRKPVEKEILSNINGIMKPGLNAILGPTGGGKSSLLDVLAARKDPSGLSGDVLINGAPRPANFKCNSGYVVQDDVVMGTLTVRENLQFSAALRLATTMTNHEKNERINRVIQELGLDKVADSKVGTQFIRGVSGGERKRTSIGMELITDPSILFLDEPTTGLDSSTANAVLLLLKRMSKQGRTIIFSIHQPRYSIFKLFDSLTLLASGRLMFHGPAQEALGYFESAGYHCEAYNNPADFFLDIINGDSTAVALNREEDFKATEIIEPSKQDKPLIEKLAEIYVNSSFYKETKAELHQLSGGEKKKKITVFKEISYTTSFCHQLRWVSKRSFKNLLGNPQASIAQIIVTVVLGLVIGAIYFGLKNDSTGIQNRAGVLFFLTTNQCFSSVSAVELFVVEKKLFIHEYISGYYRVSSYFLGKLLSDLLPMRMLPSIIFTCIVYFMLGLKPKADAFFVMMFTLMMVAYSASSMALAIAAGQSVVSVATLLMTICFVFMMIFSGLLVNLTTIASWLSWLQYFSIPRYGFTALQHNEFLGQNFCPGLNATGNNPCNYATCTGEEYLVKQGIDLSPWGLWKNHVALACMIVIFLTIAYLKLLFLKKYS

[7] = Permeability across iPSC-derived BMEC Transwell in vitro BBB model; conditions: human
[8] = biological target: P-gp (Homo sapiens, UniProt P08183); assay: Permeability with P-gp inhibitor PSC833 in iPSC-derived BMEC; type: in vitro ADME; conditions: 1 μM PSC833, 60 min pre-incubation; normalized to no inhibitor
P-gp, sequence (P08183 whole entry): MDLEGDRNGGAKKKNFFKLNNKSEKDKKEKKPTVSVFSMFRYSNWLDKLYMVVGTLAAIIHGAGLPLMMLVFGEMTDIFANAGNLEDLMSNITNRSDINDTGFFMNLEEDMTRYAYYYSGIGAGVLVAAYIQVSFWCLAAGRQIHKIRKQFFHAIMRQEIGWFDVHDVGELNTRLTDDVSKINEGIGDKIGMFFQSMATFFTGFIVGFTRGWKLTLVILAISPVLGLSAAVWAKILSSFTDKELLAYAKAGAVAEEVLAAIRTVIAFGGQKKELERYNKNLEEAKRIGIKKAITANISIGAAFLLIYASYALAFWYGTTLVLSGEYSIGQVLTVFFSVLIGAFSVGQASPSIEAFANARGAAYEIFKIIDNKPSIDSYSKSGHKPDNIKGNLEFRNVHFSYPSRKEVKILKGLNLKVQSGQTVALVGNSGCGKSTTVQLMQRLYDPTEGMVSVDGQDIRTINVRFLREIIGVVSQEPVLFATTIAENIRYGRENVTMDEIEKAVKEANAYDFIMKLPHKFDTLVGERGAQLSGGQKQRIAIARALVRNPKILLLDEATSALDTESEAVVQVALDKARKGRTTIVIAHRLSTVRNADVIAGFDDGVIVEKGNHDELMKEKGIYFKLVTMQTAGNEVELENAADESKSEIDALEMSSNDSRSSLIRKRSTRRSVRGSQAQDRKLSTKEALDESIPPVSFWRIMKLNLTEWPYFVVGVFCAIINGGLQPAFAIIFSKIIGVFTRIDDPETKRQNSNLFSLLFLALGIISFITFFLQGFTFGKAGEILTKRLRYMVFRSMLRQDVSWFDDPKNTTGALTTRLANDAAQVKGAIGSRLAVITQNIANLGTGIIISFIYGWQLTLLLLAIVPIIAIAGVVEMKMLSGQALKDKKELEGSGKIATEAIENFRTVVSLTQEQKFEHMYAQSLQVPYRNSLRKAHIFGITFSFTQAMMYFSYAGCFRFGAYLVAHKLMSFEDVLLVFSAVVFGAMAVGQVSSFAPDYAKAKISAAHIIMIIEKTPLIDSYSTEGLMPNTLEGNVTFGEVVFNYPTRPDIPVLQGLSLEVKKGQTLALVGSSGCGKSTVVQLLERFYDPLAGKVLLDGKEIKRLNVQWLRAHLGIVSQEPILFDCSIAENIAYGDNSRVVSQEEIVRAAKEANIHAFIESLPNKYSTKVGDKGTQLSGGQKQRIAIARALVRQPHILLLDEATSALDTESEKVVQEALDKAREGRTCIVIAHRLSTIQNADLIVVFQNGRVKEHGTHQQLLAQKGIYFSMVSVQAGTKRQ

| Papp at 2 h, 1 μM [7] [×10⁻⁶ cm/s] | permeability change with PSC833 (P-gp inhibition) [8] | Compound | in vitro BBB permeability at 4°C compared to 37°C [1] | permeability (Pe) across iPSC-BMEC [2] | fold increase of experimental LogD compared to parent CLR1404 [3] | permeability change with MK571 (MRP inhibition) [4] | polarized flux, basolateral-apical (BA) vs apical-basolateral (AB) [5] | permeability change with Ko143 (BCRP inhibition) [6] | fold reduced permeability compared with CLR1501 ([2]; iPSC-derived BMEC Transwell, p<0.05) [fold] |
| --- | --- | --- | --- | --- | --- | --- | --- | --- | --- |
|  |  | C[N+](C)(C)CCOP(=O)([O-])OCCCCCCCCCCCCCCCCCCc1ccc(C2=C3C=CC=[N+]3[B-](F)(F)n3cccc32)cc1 [CLR1501] | significantly higher | 54±3.2 ×10^−5 cm/min | greater than 2 fold | selectively increased | significantly polarized flux in the brain-to-blood (BA) direction | selectively increased |  |
|  |  | CN1/C(=C/C=C2\CCCC(/C=C/C3=[N+](C)c4ccccc4C3(C)C)=C2c2ccc(CCCCCCCCCCCCCCCCCCOP(=O)([O-])OCC[N+](C)(C)C)cc2)C(C)(C)c2ccccc21.[Cl-] [CLR1502] | significantly higher | 26±4.9 ×10^−5 cm/min | greater than 2 fold | A similar pattern was observed | significantly polarized flux in the brain-to-blood (BA) direction | A similar pattern was observed | 2 |
| 5.83 | did not affect | C[N+](C)(C)CCOP(=O)([O-])OCCCCCCCCCCCCCCCCCCc1ccc(I)cc1 [CLR1404, 18-(p-iodophenyl) octadecylphosphocholine] | slight, but statistically insignificant, increase |  |  | did not affect | no significant evidence of polarized efflux | did not affect |  |
